Measurements from the OPERA property sets (Mansouri et al. 2018).

SMILES	boiling point [°C]	melting point [°C]	other results
CCCOC(C)C	83	–	–
CN(C)C(=S)Sc1ccc([N+](=O)[O-])cc1[N+](=O)[O-]	–	152	–
COc1ccc2c(c1O)-c1cccc3c1C(C2)N(C)CC3 (configuration not stated)	–	124	–
c1ccc(N2CCCCC2)cc1	258	4.7	–
CCc1ccc(C(c2ccc(CC)cc2)C(Cl)Cl)cc1	–	56	–
CC1=CC(=O)C(C2=C(O)C(=O)C(C)=CC2=O)=C(O)C1=O	–	230	–
O=c1c2ccccc2oc2ccccc12	351	174	–
CN(C)CCc1c[nH]c2cccc(O)c12	–	174	–
Nc1ccc2ccccc2c1	300	113	log10 Henry constant (atm·m³/mol): -7.09; log10 vapour pressure (mmHg): -3.59; ready biodegradability: readily biodegradable
CN1[C@@H]2CC[C@H]1C[C@@H](OC(=O)C(O)c1ccccc1)C2 (mixture of isomers)	–	99.5	–
Cc1cc(C)c(N)cc1C	234	68	log10 Henry constant (atm·m³/mol): -5.61; log10 vapour pressure (mmHg): -2.05
CC(C)CCCC(C)C	135	-103	–
COC(=O)c1ccc(C(=O)OC)o1	–	112	–
O=C=Nc1ccc(Cl)cc1	204	30	log10 vapour pressure (mmHg): -0.712
COc1ccc2c(c1)O[C@H]1c3ccc(O)cc3OC[C@@H]21	–	128	–
OCCOCCOCCO	285	-7	ready biodegradability: readily biodegradable
FC(F)(F)C(Cl)=C(Cl)Cl	88.1	–	–
COC(C)(C)CCCC(C)C/C=C/C(C)=C/C(=O)OC(C)C (configuration not stated)	–	–	log10 vapour pressure (mmHg): -4.63
CC#CCCCCC	138	-61.6	log10 vapour pressure (mmHg): 0.875
O=C1CCCCCCN1	–	36.5	–
Nc1ncccn1	–	128	–
CCOC(=O)N1CCN(C(=O)OCC)CC1	315	47	–

SMILES	boiling point [°C]	melting point [°C]	other results
CC(C)(c1cc(Br)c(OCCO)c(Br)c1)c1cc(Br)c(OCCO)c(Br)c1	–	107	ready biodegradability: not readily biodegradable
CCCCCC(=O)CCCCC	228	14.5	log10 vapour pressure (mmHg): -1.3; ready biodegradability: readily biodegradable
Oc1ccc(Br)c(O)c1	–	103	–
CCOc1ccc(C(N)=O)cc1	–	209	–
CC(C)NNC(=O)COc1ccc(Cl)cc1	–	93.5	–
CCCCCCCCCCOC(=O)CCCCC(=O)OCCCCCCCC	–	-50	–
CCC(C)CCC(C)O (configuration not stated)	170	-61	–
CC(N)Cc1ccccc1 (configuration not stated)	–	–	log10 vapour pressure (mmHg): -0.62
O=C1CN=C(c2ccccc2)c2cc(Cl)ccc2N1CC(F)(F)F	–	165	–
CCCCCCCCCCCCCCCCCCOP1OCC2(CO1)COP(OCCCCCCCCCCCCCCCCCC)OC2 (configuration not stated)	–	–	ready biodegradability: readily biodegradable
O=C1NCCCN1	–	265	–
FC(F)OC(C(F)(F)F)C(F)(F)F	42.1	–	log10 vapour pressure (mmHg): 2.59
CC(C)CC(=O)C(C)C	148	–	–
Nc1c(Cl)cccc1C(=O)O	–	190	–
CC1=NCCO1	111	–	–
CCCCOCOCCCC	179	-58.1	–
FC(F)CC(F)(F)F	40	-102	log10 vapour pressure (mmHg): 3.05
CCCCCCCNCCCCCCC	271	31.5	–
Cc1ccc(N(CC2=NCCN2)c2cccc(O)c2)cc1	–	174	–
CC(C)(c1ccccc1)c1ccccc1	282	29	–
CCCCCCCCCCCCCCCCCC(=O)OCCC	–	28.9	–
O=C1OC(c2ccccc2)(c2ccccc2)c2ccccc21	–	120	–

SMILES	boiling point [°C]	melting point [°C]	other results
Oc1cc(O)c2ccccc2c1	–	124	–
CCCCCC1CCCCC1	204	-57.5	log10 vapour pressure (mmHg): -0.429
CCCCCCCCCCCCCCCCOP(=O)(O)OCCCCCCCCCCCCCCCC	–	74.5	–
C=CCCCCC=C	116	–	–
O=[N+]([O-])CCO	194	-80	–
COc1cc(OC)nc(Oc2cccc(Oc3nc(OC)cc(OC)n3)c2C(=O)ON=C(c2ccccc2)c2ccccc2)n1	–	129	–
C[C@@]12CCC[C@H]1[C@@H]1CC[C@H]3CCCC[C@]3(C)[C@H]1CC2	–	64.6	–
SCCCS	173	-79	–
C=C(C)C(=O)OCc1ccccc1	–	–	ready biodegradability: readily biodegradable
Cc1ccc(N(CCO)CCO)cc1	339	–	–
CSc1ccc(C(=O)O)cc1	–	194	–
CC1(C)OC[C@@H]2O[C@@]3(C(=O)O)OC(C)(C)O[C@H]3[C@@H]2O1	–	74	–
CCC(CC)c1ccncc1	217	126	–
COc1ccccc1N1CCN(CCCNc2cc(=O)n(C)c(=O)n2C)CC1	–	157	–
CCCCCCCCC(=O)CC	227	12	–
C1CCCSCC1	174	0.5	–
C[C@@H]1Cc2c(Cl)cc(C(=O)N[C@@H](Cc3ccccc3)C(=O)O)c(O)c2C(=O)O1	–	169	–
O=C1OC(=O)c2cccc3cccc1c23	–	270	–
CC(C(=O)O)c1ccc(-c2ccccc2)c(F)c1 (configuration not stated)	–	110	–
CCOC(=O)NN	–	46	–
COc1ccc([N+](=O)[O-])cc1N	–	118	–
COC(=O)c1ccncc1	208	16.1	–
